pIC50, pKd: −log10 of the molar value. Read-outs that look alike come from different tables or passages of the source.
Experiments:
[1] = tested on: MOLT-4; assay: MTS GI50, Myc-dependent panel; assay type: cell-based; details: Homo sapiens, MOLT-4, 72 h
Protocol: (§1) Cytotoxicity Results in Myc-dependent Cancer Cell Lines.
(§2) MTS Cell Viability IC50 Assay. Drug solutions for MTS IC50 assays of suspension cell lines were made from DMSO stocks by serial-dilutions in 1×PBS (10010-031, Gibco). To set up treatments, drug solutions were plated in triplicates to 96-well tissue culture plates, to which cell-containing media was added to a total volume of 100 μL/well. 100%-viability controls were untreated cells. 2000 cells/well were plated for all suspension cell lines except 3000 cells/well for KMS-27 and 10000 cells/well for CHLA-32. Blanks were cell-free media. Drug treatments were maintained for 72 hr at 37° C. with 5% CO2. To quantify cells, CellTiter 96 AQueous MTS Reagent Powder (G1111, Promega) was dissolved and mixed with phenazine methosulfate (PMS, Sigma-Aldrich P9625) according to manufacturer's instructions. MTS/PMS mix ([…]) was added to treatment wells, 100%-viability control wells, and blank wells. Colors were developed at 37° C. with 5% CO2 for 4 h and absorbance at 490 nm was measured by BioTek Synergy 4 system. To obtain %-viability, A490 values were corrected by blank subtraction, normalized to 100%-viability control, and averaged. Average %-viabilities were plotted against drug dosages to obtain dose-response curves. […] For adherent cell lines, the MTS IC50 assays were conducted the same way as for suspension cell lines except for cell plating and drug treatment. For cell plating, 50 μL of 2000 cells were plated in triplicates to a 96-well tissue culture plate. Cells were allowed sufficient time to become adherent. Serial-diluted drug solutions were made the same way as in the MTS IC50 assays. To set up treatments, drug solutions were mixed with media to two-fold of the final concentrations, and 50 μL of such drug-media mix was then added to 50 μL of plated cells.

[2] = tested on: MCF-7; assay: MTS GI50, Myc-dependent panel; assay type: cell-based; details: Homo sapiens
Protocol: as §1, §2

[3] = tested on: CHLA-32; assay: MTS GI50, Myc-dependent panel; assay type: cell-based
Protocol: as §1, §2

[4] = tested on: K-562; assay: MTS GI50, Myc-dependent panel; assay type: cell-based; details: Homo sapiens
Protocol: as §1, §2

[5] = tested on: TC-106; assay: MTS GI50, Myc-dependent panel; assay type: cell-based
Protocol: as §1, §2

[6] = tested on: KMS-27; assay: MTS GI50, Myc-dependent panel; assay type: cell-based; details: KMS-27, 72 h
Protocol: as §1, §2

[7] = tested on: ARD; assay: MTS GI50, Myc-dependent panel; assay type: cell-based; details: 72 h
Protocol: as §1, §2

[8] = tested on: CHLA-99; assay: MTS GI50, Myc-dependent panel; assay type: cell-based
Protocol: as §1, §2

[9] = tested on: Kasumi-1; assay: MTS GI50, Myc-dependent panel; assay type: cell-based; details: Homo sapiens
Protocol: as §1, §2

[10] = tested on: L-363; assay: MTS GI50, Myc-dependent panel; assay type: cell-based; details: Homo sapiens, L-363, 72 h
Protocol: as §1, §2

[11] = tested on: TC-71; assay: MTS GI50, Myc-dependent panel; assay type: cell-based; details: TC-71, 72 h
Protocol: as §1, §2

[12] = tested on: HL-60; assay: MTS GI50, Myc-dependent panel; assay type: cell-based; details: Homo sapiens, HL-60, 72 h
Protocol: as §1, §2

[13] = tested on: RS4;11; assay: MTS GI50, Myc-dependent panel; assay type: cell-based; details: Homo sapiens
Protocol: as §1, §2

[14] = tested on: TC-32; assay: MTS GI50, Myc-dependent panel; assay type: cell-based; details: Homo sapiens, TC-32, 72 h
Protocol: as §1, §2

[15] = tested on: THP-1; assay: MTS GI50, Myc-dependent panel; assay type: cell-based; details: Homo sapiens, THP-1, 72 h
Protocol: as §1, §2

[16] = tested on: CCRF-CRM; assay: MTS GI50, Myc-dependent panel; assay type: cell-based; details: 72 h
Protocol: as §1, §2

[17] = tested on: RPMI-8226; assay: MTS GI50, Myc-dependent panel; assay type: cell-based; details: Homo sapiens, RPMI-8226, 72 h
Protocol: as §1, §2

[18] = tested on: SK-N-MC; assay: MTS GI50, Myc-dependent panel; assay type: cell-based; details: Homo sapiens, 72 h
Protocol: as §1, §2

[19] = tested on: AMO-1; assay: MTS GI50, Myc-dependent panel; assay type: cell-based; details: Homo sapiens
Protocol: as §1, §2

[20] = tested on: RD-ES; assay: MTS GI50, Myc-dependent panel; assay type: cell-based; details: 72 h
Protocol: as §1, §2

[21] = tested on: MDA-MB-231; assay: MTS GI50, Myc-dependent panel; assay type: cell-based; details: Homo sapiens, MDA-MB-231, 72 h
Protocol: as §1, §2

[22] = biological target: 3′-TAMRA-labeled MycG4 DNA; assay: Fluorescence binding assay; details: 20° C., 100 mM K+ buffer, pH 7.0; read-out: Apparent Binding Affinity Kd, app
Protocol: Binding Affinity to the Myc G-Quadruplex. Binding affinity of eight 7-aza-8,9-methylenedioxyindenoisoquinolines to MycG4 was determined using a fluorescence binding assay with a 3′-TAMRA-labeled MycG4 DNA. Monitoring TAMRA emission upon drug titration afforded binding isotherms, from which apparent binding affinities, Kd,app, were derived.
Fluorescence-Based Binding Assays. Fluorescence-based binding assays were performed on a Jasco FP-8300 spectrofluorometer equipped with a temperature controller at 20° C. in a quartz cuvette with a 10 mm path length. 3′-TAMRA-labeled MycG4 DNA (Sigma-Aldrich) was diluted to 20 nM using a 75 mM KCl/25 mM potassium phosphate buffer, pH 7.0. […] Fluorescence intensity at 580 nm, the maximum for the free DNA, was plotted against drug:DNA ratio. The apparent binding dissociation constant, Kd,app, was derived for the binding of each compound. Using OriginPro software (OriginLab Corp., United States) the change in fluorescence intensity was fitted to a one-site binding equation,
where B0 is the initial fluorescence intensity, B is maximum change in fluorescence intensity, R is DNA concentration, and L is drug:DNA ratio.

[23] = tested on: RAJI lymphoma cells; assay: MTS cell viability IC50 assay; assay type: cell-based; details: 72 h
Protocol: Cytotoxicity Results in Raji Non-Hodgkin's Lymphoma Cells. MTS experiments were then conducted to test the anti-proliferative effects of 7-aza-8,9-methylenedioxyindenoisoquinolines in Raji cells. Cells were incubated at 2-2000 nM of each drug for 72 h, and cell viabilities were quantified using the MTS assay. […] This potency trend generally correlated with the western blot results, in which G106 and G108 […] show weaker Myc downregulation.
as §2

Q: What does the source list for CC[C@@]1(O)C(=O)OCc2c1cc1n(c2=O)Cc2cc3ccccc3nc2-1 [CPT, Camptothecin]?
A: GI50 ([1]; read-out: GI50): < 2 nM; GI50 ([2]; MCF7, MCF-7, 72 h, read-out: GI50): 200 nM; GI50 ([3]; CHLA-32, 72 h, read-out: GI50): 6 nM; GI50 ([4]; K562, K-562, 72 h, read-out: GI50): 22 nM; GI50 ([5]; TC-106, 72 h, read-out: GI50): 11 nM; GI50 ([6]; read-out: GI50): 13 nM; GI50 ([7]; ARD, read-out: GI50): 11 nM; GI50 ([8]; CHLA-99, 72 h, read-out: GI50): 4 nM; GI50 ([9]; Kasumi-1, 72 h, read-out: GI50): 85 nM; GI50 ([10]; read-out: GI50): 10 nM; GI50 ([11]; read-out: GI50): 8 nM; GI50 ([12]; read-out: GI50): 27 nM; GI50 ([13]; RS4;11, 72 h, read-out: GI50): 6 nM; GI50 ([14]; read-out: GI50): 7 nM; GI50 ([15]; read-out: GI50): 55 nM; GI50 ([16]; CCRF-CRM, read-out: GI50): 4 nM; GI50 ([17]; read-out: GI50): 14 nM; GI50 ([18]; read-out: GI50): 9 nM; GI50 ([19]; AMO1, AMO-1, 72 h, read-out: GI50): 20 nM; GI50 ([20]; read-out: GI50): 5 nM; GI50 ([21]; read-out: GI50): 37 nM

Q: How did the pKd [22] turn out when COc1cc2c3c(n(CCCN4CCC[C@H]4C(N)=O)c(=O)c2cc1OC)-c1nc2c(cc1C3=O)OCO2 [G106, (S)-1-(3-(2,3-dimethoxy-5,12-dioxo-5,12-dihydro-6H-[1,3]dioxolo [4″,5″:5′,6′]pyrido[3′,2′:4,5]cyclopenta[1,2-c]isoquinolin-6-yl)propyl)pyrrolidine-2-carboxamide] was run?
A: 7.26

Q: And the pIC50 ([23]; RAJI)?
A: 5.70

Q: COc1cc2c3c(n(CCCNCCO)c(=O)c2cc1OC)-c1cc2c(cc1C3=O)OCO2 [LMP517] was tested. Which pKd [22] did it give?
A: 6.96

Q: And the GI50 [1]?
A: 3 nM

Q: What about the GI50 ([2]; MCF7, 72 h) of the same compound?
A: 418 nM

Q: What about the GI50 ([3]; 72 h) of the same compound?
A: 37 nM

Q: And the GI50 ([4]; K562, 72 h)?
A: 74 nM

Q: And the GI50 ([5]; 72 h)?
A: 51 nM

Q: And the GI50 [6]?
A: 44 nM

Q: And the GI50 [7]?
A: 27 nM

Q: And the GI50 ([8]; 72 h)?
A: 44 nM

Q: What about the GI50 ([9]; Kasumi 1, 72 h) of the same compound?
A: 148 nM

Q: What about the GI50 [10] of the same compound?
A: 42 nM

Q: And the GI50 [11]?
A: 58 nM

Q: And the GI50 [12]?
A: 137 nM

Q: And the GI50 ([13]; RS4-11, 72 h)?
A: 7 nM

Q: What about the GI50 [14] of the same compound?
A: 12 nM

Q: And the GI50 [15]?
A: 93 nM

Q: And the GI50 [16]?
A: 11 nM

Q: And the GI50 [17]?
A: 82 nM

Q: And the GI50 [18]?
A: 62 nM

Q: What about the GI50 ([19]; AMO1, 72 h) of the same compound?
A: 69 nM

Q: And the GI50 [20]?
A: 9 nM

Q: What about the GI50 [21] of the same compound?
A: 319 nM

Q: And the pIC50 ([23]; Homo sapiens, Raji)?
A: 7.28
